Results on 3 compounds are retold here after patent publication US20090217393A1, “Growth Promoting Agent and Life Prolonging Agent” (B FOOD SCIENCE CO., LTD., priority 2005, published 2009).

The subject of experiment [1] is Arabidopsis plants. Description: Arabidopsis plant cultivation test. In kind it is in vivo. Conditions: Murashige & Skoog medium containing 0.06% by mass of erythritol; vs control. From the text:
Arabidopsis plants were separately inoculated into a Murashige & Skoog medium containing 0.06% by mass of erythritol (erythritol-added group; the present invention) and a medium containing no erythritol (no-erythritol-added group; control), followed by comparison of growth of the Arabidopsis plants.

The test system of experiment [2] is Crj:BDF1 mice (male). Description: Mouse breeding test. In kind it is in vivo. Conditions: feed containing 5% by mass of erythritol. An excerpt:
Crj:BDF1 mice (male) were divided into a group fed with a feed containing 5% by mass of erythritol (erythritol-added group; the present invention) and a group fed with a feed containing no erythritol (no-erythritol-added group; control), and bred, followed by investigation of 50% survival times, 75% survival times, average survival times, survival rates, and maximum survival times.

The test system of experiment [3] is yeast Saccharomyces cerevisiae. The experiment in a line: Yeast culture test. In kind it is cell-based. The following applies: SD medium containing 0.006% by mass of erythritol. How it is done: A yeast Saccharomyces cerevisiae was cultured in an SD medium containing 0.006% by mass of erythritol (erythritol-added group; the present invention) and in an SD medium containing no erythritol (no-erythritol-added group; control). 27 hours later, absorbances at 660 nm were measured.

For experiment [4], the system named is Radish sprouts. The experiment in a line: Radish sprout cultivation test. In kind it is in vivo. Here is the method:
Radish sprouts were cultivated in 0.75% agar mediums containing erythritol, mannitol, and sorbitol each at concentrations of 0.05% by mass, 0.1% by mass, and 0.5% by mass as sugar alcohols, and in an agar medium containing no sugar alcohol (0%). 3 and 6 days after germination, the lengths of radish sprouts were measured.

Experiment [5] relates to shiitake. The experiment in a line: Mushroom (shiitake) cultivation test. The following applies: for Number of mushroom with pileus diameter of 5 cm or more: 8 days later, control 2. In kind it is in vivo. Here is the method: A shiitake cultivation test was performed using a commercially available shiitake cultivation kit.
The cultivation kit is a product produced by hardening wood chips prepared by pulverizing broad-leaved tree, together with a nutritional supplement and a shiitake fungus into a block form. The blocks were separately immersed in aqueous solutions containing 0% by mass (no addition), 0.05% by mass, 0.5% by mass, and 5% by mass of erythritol, and the surfaces of the blocks were washed. Then, the blocks were placed in plastic bags to prevent drying, and the tops of the bags were closed with clothespins, followed by cultivation of the shiitake while adjusting the temperature to 23° C. during the daytime and to 8° C. during the nighttime. Whenever the surfaces of the blocks were dried, the surfaces of the blocks were moisturized using a spray with the aqueous solutions containing erythritol at the above-mentioned each concentration. 3 days later, the shiitake started to germinate on the blocks, and 8 days later, the diameter and number of each pileus of the shiitake were measured.

For experiment [6], the system named is Layers (white Plymouth Rock). Description: Layer growth test. In kind it is in vivo. Conditions: feed containing 5% by mass of erythritol. How it is done: Layers (white Plymouth Rock) were divided into a group fed with a feed containing 5% by mass of erythritol (erythritol-added group; the present invention) and a group fed with a feed containing no erythritol (no-erythritol-added group; control), and bred. The breeding was performed for 24 months, which was generally defined so as to generate economic benefits, and the survival rates were continuously watched. Meanwhile, average body weights (g) were continuously watched for four weeks.

Setting [7] is: 0.05% by mass sugar alcohol in 0.75% agar medium, After 3 days.
The mark [8] stands for this setting: 0.05% by mass sugar alcohol in 0.75% agar medium, After 6 days.
[9] abbreviates: 0.1% by mass sugar alcohol in 0.75% agar medium, After 3 days.
[10] abbreviates: 0.1% by mass sugar alcohol in 0.75% agar medium, After 6 days.
[11] abbreviates: 0.5% by mass sugar alcohol in 0.75% agar medium, After 3 days.
Where [12] appears, read: 0.5% by mass sugar alcohol in 0.75% agar medium, After 6 days.

Each structure is given as a SMILES string.

In the case of `OC[C@@H](O)[C@@H](O)CO` [erythritol], the “growth promoting effect on roots and leaves/stems” value in experiment [1] was “confirmed”. In experiment [2] (Crj:BDF1 male mice), this compound had a 50% survival time of 927 days. The compound further had a 75% survival time in experiment [2] (Crj:BDF1 male mice) of 850 days. Moreover, in experiment [2] (Crj:BDF1 male mice), the Average survival time turned out to be 768 days. For the same compound, the Maximum survival time in experiment [2] (Crj:BDF1 male mice) is reported as 1,080 days. Besides, the “50% survival time compared with control” value in experiment [2] (vs no-erythritol-added group) is reported as “prolonged”. In addition, the “75% survival time compared with control” value in experiment [2] (vs no-erythritol-added group) is on record as “prolonged”. Besides, the “average survival time compared with control” value in experiment [2] (vs no-erythritol-added group) was “prolonged”. The “maximum survival time compared with control” value in experiment [2] (vs no-erythritol-added group) was “no significant difference”. Also, the “survival rate compared with control” value in experiment [2] (vs no-erythritol-added group) is “prolonged”; in experiment [6] (breeding for 24 months, FIG. 2) it was “increased”. In experiment [3], the yeast proliferation effect result is given as “confirmed”. Moreover, in experiment [3] (27 hours later, control 2.65), the “absorbance at 660 nm” value is recorded as 2.88. Further, the “sizes of the yeast cells larger than control” value in experiment [3] (under a microscope) is “about 20%”. Moreover, the “Lengths of radish sprouts” value is 46 mm in experiment [4] (setting [7]); 109 mm in experiment [4] (setting [8]); 30 mm in experiment [4] (setting [9]); 76 mm in experiment [4] (setting [10]); 31 mm in experiment [4] (setting [11]); 87 mm in experiment [4] (setting [12]). The “length of radish sprouts / growth promoting effect compared with no-sugar-alcohol-added group” value in experiment [4] (0.05 to 0.5% by mass in agar medium) is reported as “particularly excellent growth promoting effects”. Besides, the “Number of mushroom with pileus diameter of 5 cm or more” value in experiment [5] (0.05% by mass erythritol aqueous solution) came out at 8; in experiment [5] (0.5% by mass erythritol aqueous solution), 5; in experiment [5] (5.0% by mass erythritol aqueous solution), 9. In experiment [5] (all the concentrations (0.05, 0.5, 5% by mass)), the “numbers of mushrooms with a pileus diameter of 5 cm or more compared with control” value is “significantly increase”. Moreover, in experiment [6] (watched for four weeks, FIG. 3), the “average body weight compared with control” value is listed as “increased”.
Turning to `OC[C@@H](O)[C@@H](O)[C@H](O)[C@H](O)CO` [mannitol], the “Lengths of radish sprouts” value in experiment [4] (setting [7]) is 15 mm; in experiment [4] (setting [8]) it was 59 mm; in experiment [4] (setting [9]), 29 mm; in experiment [4] (setting [10]), 61 mm; in experiment [4] (setting [11]), 24 mm; in experiment [4] (setting [12]), 55 mm.
With `OC[C@@H](O)[C@@H](O)[C@H](O)[C@@H](O)CO` [sorbitol], the “Lengths of radish sprouts” value in experiment [4] (setting [7]) was 30 mm; in experiment [4] (setting [8]) it was 68 mm; in experiment [4] (setting [9]), 31 mm; in experiment [4] (setting [10]), 64 mm; in experiment [4] (setting [11]) it was 27 mm; in experiment [4] (setting [12]), 52 mm.
